Test results: publication PMC10706475 (International Journal of Molecular Sciences, 2023)
Several values for one entry are separate records, joined by “and”; a condition that tells them apart may be missing. Identical values can stand only once. Like-named read-outs stand apart in the source and are kept apart here.

Columns and labels:
Vitamin C = format: in vivo, mice
[1] = target: T1, Serotonin Transporter (SERT) (Homo sapiens, UniProt P31645); test: radioligand binding, Serotonin Transporter; conditions: [3H] Citalopram, cloned human transporter; read-out: SERT binding affinity (Ki)
T1 construct: expressed in transfected cells
T1 sequence (P31645 whole entry): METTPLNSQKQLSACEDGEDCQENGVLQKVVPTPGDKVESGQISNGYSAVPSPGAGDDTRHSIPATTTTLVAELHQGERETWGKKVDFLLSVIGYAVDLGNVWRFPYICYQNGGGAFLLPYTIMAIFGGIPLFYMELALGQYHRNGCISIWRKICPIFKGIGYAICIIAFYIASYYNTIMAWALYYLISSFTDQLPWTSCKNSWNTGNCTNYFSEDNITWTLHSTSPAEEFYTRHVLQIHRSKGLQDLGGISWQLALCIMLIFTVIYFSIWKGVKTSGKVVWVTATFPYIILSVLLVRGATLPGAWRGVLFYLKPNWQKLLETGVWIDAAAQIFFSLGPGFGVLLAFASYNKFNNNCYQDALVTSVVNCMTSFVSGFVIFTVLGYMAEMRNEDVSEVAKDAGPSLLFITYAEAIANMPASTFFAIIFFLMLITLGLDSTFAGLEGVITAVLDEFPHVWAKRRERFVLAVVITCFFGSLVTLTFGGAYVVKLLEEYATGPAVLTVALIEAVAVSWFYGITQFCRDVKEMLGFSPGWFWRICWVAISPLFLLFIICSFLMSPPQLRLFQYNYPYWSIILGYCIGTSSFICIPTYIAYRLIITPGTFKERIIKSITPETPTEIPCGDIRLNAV

D2 = target: T2, D2 (Homo sapiens, UniProt P14416); test: radioligand binding, D2; conditions: [3H] N-Methylspiperone, cloned human receptor; read-out: D2 binding affinity (Ki)
T2 construct: expressed in transfected cells
T2 sequence (P14416 whole entry): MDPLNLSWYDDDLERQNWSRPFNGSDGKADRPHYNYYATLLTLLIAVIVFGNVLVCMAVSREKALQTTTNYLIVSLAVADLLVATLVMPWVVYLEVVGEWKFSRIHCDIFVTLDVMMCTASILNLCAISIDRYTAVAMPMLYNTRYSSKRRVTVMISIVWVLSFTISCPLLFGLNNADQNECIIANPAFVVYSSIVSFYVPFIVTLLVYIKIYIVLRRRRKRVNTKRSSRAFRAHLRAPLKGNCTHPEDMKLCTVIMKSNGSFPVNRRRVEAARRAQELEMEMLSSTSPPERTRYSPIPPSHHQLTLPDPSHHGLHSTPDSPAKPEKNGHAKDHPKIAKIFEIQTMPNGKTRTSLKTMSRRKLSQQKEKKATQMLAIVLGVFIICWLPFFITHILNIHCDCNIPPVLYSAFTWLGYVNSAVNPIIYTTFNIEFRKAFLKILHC

[2] = in vivo activity (i.p.), test not specified; conditions: 100 and 300 mg/kg (i.p.); test not named
Method: Sodium metavanadate (NaO3V) (Sigma, St. Louis, MO, USA) was utilized in this study. Novel NMDA-Receptor antagonist, ZA-II-05, is a bicyclic aryl cyclohexylamine, designed and synthesized in our lab, fully active at 100 and 300 mg/kg (i.p.). Several tests established the safety of the compound at dosages envisioned in this study.

GFAP = tested on: GFAP; parameters: species or system mice; conditions: mouse, in vivo
nitric oxide (NO) = format: in vivo, mice
NeuN = format: in vivo, mice
[3] = tested on: Myelin Basic Protein (MBP); parameters: species or system mice; conditions: mouse, in vivo
Sigma2 = target: T3, Sigma2 (Rattus norvegicus, UniProt Q5U3Y7); test: radioligand binding, Sigma2
T3 construct: Sigma2; DTG; Rat; PC12; endogenous in cells; host or cells: PC12
T3 sequence (Q5U3Y7 whole entry): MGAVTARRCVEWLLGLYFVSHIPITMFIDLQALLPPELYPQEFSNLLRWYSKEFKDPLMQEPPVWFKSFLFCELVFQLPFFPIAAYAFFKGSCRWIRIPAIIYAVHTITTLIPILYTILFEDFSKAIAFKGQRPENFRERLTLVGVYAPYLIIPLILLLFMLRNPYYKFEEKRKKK

H2O2 = tested on: H2O2; parameters: species or system mice; conditions: mouse, in vivo
Dopamine 1 (D1) = target: T4, Dopamine 1 (D1) (Homo sapiens, UniProt P21728); test: radioligand binding, Dopamine 1 (D1); conditions: [3H] SCH23390, cloned human receptor; read-out: D1 binding affinity (Ki)
T4 construct: expressed in transfected cells

[4] = locomotion and motor coordination; format: in vivo, mice; conditions: treatment with ZA-II-05 in vanadium-induced neurotoxicity
κ-opioid receptors (KOR) = target: T5, κ-opioid receptors (KOR) (Rattus norvegicus, UniProt P34975); test: biochemical; format: binding; conditions: read-out: κ-Opiod Receptor Ki
T5 construct: expressed in transfected cells
T5 sequence (P34975 whole entry): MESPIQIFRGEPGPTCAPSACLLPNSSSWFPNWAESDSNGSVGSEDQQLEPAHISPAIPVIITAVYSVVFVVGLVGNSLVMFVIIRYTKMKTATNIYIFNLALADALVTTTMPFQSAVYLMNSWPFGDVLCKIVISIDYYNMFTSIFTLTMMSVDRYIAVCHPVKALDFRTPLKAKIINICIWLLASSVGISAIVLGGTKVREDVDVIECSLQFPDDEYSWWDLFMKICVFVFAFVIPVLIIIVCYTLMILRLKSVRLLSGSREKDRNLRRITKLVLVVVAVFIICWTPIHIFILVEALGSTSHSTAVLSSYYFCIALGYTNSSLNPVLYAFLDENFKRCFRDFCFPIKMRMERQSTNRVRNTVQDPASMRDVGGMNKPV

[5] = target: T6, Norepinephrine Transporter (NET) (Homo sapiens, UniProt P23975); test: radioligand binding, Norepinephrine Transporter; conditions: [3H] Nisoxetine, cloned human transporter; read-out: NET binding affinity (Ki)
T6 construct: expressed in transfected cells

µ-opioid receptors (MOR) = target: T7, µ-opioid receptors (MOR) (Homo sapiens, UniProt P35372); test: radioligand binding, µ-opioid receptor; conditions: read-out: μ-Opiod Receptor Ki
T7 construct: expressed in transfected cells
T7 sequence (P35372 whole entry): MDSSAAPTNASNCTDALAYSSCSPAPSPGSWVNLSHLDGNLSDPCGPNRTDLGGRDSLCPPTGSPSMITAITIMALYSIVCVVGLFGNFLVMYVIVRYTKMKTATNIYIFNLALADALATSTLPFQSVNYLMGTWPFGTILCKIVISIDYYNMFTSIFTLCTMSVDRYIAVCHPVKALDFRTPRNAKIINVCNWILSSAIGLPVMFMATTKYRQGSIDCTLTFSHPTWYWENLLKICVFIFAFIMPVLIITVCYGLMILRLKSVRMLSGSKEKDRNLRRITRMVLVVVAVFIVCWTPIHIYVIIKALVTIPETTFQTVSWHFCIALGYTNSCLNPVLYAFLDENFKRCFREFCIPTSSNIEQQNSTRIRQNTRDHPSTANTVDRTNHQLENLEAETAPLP

[6] = tested on: tumor necrosis factor-alpha (TNF-α)
Non-protein thiol (NPT) = format: in vivo, mice
[7] = tested on: organotypic rat hippocampal slices; format: cell-based
[8] = tested on: dendritic density and arborizations; format: in vivo, mice; conditions: coadministration of ZA-II-05 with […], vs […]-treated group
Sigma1 = target: T8, Sigma1 (Rattus norvegicus, UniProt Q9R0C9); test: radioligand binding, Sigma1; conditions: [3H] Pentazocine (+), rat brain; read-out: Sigma 1 binding affinity (Ki)
T8 construct: Sigma1; Pentazocine (+); Rat; Brain; from tissue; host or cells: rat brain
T8 sequence (Q9R0C9 whole entry): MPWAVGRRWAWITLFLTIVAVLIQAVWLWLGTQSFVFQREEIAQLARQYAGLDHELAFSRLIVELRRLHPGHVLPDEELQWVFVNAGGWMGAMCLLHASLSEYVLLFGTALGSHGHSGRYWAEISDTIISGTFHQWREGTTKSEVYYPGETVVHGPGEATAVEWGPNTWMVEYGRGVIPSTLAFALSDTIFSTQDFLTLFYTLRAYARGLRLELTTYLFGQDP

total thiol (PT) = format: in vivo, mice
IBA1 = format: in vivo, mice; conditions: ZA-II-05 treated groups vs […] group
[9] = target: T9, Dopamine Transporter (DAT) (Homo sapiens, UniProt Q01959); test: radioligand binding, Dopamine Transporter; conditions: [3H] WIN35428, cloned human transporter
T9 construct: expressed in transfected cells
T9 sequence (Q01959 whole entry): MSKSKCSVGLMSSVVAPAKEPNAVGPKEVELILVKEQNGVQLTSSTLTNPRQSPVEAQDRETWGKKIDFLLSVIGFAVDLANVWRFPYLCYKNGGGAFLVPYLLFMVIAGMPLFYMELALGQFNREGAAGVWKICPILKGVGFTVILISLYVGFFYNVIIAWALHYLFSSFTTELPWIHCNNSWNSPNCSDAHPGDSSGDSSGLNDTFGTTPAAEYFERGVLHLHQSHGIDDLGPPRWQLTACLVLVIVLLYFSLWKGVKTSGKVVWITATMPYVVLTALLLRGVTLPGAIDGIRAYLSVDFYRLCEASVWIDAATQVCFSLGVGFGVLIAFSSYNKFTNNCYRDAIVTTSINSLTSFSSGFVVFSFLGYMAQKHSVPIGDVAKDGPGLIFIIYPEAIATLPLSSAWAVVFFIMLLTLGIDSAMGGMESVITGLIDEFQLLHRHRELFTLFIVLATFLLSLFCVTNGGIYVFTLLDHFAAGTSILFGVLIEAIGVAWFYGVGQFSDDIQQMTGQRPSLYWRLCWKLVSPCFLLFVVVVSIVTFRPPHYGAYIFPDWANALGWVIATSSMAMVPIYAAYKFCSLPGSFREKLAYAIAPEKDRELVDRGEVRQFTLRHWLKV

5-HT2A = target: T10, 5-HT2A (Homo sapiens, UniProt P28223); test: radioligand binding, 5-HT2A; conditions: [3H] Ketanserin, cloned human receptor; read-out: 5HT2A binding affinity (Ki)
T10 construct: expressed in transfected cells
T10 sequence (P28223 whole entry): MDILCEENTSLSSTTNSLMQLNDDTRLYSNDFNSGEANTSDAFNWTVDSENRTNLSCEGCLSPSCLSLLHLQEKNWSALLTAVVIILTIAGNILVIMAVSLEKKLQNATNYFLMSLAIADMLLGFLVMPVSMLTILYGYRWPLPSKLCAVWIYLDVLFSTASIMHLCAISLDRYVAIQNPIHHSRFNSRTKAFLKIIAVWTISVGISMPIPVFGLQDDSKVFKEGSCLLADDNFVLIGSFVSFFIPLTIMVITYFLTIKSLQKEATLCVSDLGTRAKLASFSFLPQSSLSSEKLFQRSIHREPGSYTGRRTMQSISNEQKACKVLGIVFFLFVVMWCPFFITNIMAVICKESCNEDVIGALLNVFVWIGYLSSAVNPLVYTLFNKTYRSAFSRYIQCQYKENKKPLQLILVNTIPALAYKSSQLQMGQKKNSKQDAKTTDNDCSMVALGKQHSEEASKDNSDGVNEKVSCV

GluN1/GluN2A = GluN1/GluN2A (Rattus norvegicus, UniProt P35439+Q00959); test: [3H] MK801 binding assay, transfected HEK293 cells, GluN1/GluN2A
Chain of GluN1/GluN2A (Q00959 23-1464, other chains not shown): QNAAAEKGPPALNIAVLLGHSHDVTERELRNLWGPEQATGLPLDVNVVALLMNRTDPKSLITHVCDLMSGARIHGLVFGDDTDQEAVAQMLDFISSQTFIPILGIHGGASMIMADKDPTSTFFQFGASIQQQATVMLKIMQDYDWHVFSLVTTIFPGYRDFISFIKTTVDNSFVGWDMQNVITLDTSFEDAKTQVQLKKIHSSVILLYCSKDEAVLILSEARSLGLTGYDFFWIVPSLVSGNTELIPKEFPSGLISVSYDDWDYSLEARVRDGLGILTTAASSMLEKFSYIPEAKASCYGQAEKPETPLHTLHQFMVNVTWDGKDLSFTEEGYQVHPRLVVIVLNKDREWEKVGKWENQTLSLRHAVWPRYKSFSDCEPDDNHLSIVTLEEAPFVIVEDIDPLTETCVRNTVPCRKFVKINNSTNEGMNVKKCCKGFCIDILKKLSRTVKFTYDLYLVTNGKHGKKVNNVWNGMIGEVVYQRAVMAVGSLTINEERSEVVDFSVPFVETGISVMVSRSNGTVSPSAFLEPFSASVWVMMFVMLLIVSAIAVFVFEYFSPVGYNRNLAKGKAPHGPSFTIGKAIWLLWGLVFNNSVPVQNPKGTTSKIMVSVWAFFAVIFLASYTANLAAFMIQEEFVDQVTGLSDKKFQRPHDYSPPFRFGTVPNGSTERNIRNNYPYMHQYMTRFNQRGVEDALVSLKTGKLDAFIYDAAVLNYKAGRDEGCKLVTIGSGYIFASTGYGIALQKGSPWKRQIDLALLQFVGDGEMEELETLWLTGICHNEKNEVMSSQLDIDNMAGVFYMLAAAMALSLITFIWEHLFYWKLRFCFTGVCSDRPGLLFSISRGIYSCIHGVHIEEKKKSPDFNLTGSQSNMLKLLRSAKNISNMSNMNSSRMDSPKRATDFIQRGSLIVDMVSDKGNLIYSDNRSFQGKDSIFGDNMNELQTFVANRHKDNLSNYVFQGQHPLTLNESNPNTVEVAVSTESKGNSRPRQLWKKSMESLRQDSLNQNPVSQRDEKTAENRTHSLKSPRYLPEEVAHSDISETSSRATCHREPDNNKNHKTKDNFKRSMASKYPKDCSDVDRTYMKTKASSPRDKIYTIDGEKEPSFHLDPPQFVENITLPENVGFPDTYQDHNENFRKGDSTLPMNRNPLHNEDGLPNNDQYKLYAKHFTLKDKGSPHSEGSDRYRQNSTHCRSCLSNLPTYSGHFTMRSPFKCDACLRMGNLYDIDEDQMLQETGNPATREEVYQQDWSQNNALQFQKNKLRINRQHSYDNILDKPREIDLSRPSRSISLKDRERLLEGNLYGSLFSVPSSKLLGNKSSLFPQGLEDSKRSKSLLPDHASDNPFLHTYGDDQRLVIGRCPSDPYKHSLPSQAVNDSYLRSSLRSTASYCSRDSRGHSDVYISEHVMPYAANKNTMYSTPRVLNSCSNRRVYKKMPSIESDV

[10] = ZA-II-05 only 100 mg/kg i.p. every 72 h, one month, mouse brain

For `Fc1ccc(C2(NCCCOC3CCCCO3)CC3CCC2C3)cc1` (stereo not shown) [ZA-II-05], the “VIT. C” value (Vitamin C; [10]) was 0.17±0.02 nmoles/mg protein, the “VIT. C” value (Vitamin C; mouse, in vivo) was 0.20±0.04 nmoles/mg protein and the Ki [1] was > 10 µM. For the same compound, the Ki (D2) was > 10 µM, the activity in vivo [2] was “fully active” and the “astrocyte reactivity (GFAP)” value (GFAP) was “attenuation of astrocyte reactivity”. The NO (nitric oxide (NO); [10]) was 0.34±0.03 μmole/mg protein, the NO (nitric oxide (NO); mouse, in vivo) was 0.32±0.03 μmole/mg protein and the “NeuN viable cells / neuronal number” value (NeuN; ZA-II-05 only 100 mg/kg (ZA treatment only), CA1 and PFC) was “decreased viable cells in CA1 but increased neuronal number and vitality in the prefrontal cortex”. The “NeuN cellular pathology, prefrontal cortex” value (NeuN; mouse, in vivo, 100 mg/kg) was “significantly less cellular pathology in the prefrontal cortex compared to the vanadium-exposed groups”, the “NeuN, loss of apical dendrites of pyramidal cells, CA1” value (NeuN; mouse, in vivo, 100 mg/kg) was “reversal effect relative to the vanadium-exposed group” and the “NeuN, neuronal degeneration of pyramidal cells, CA3” value (NeuN; mouse, in vivo, 100 mg/kg) was “reversal effect with reduced cellular toxicity”. The “expression of myelin content (MBP)” value [3] was “significantly higher expression of myelin content and preservation of axonal dendritic integrity in the deep cortical layers”, the Ki (Sigma2) was 5.5 nM and the H2O2 (H2O2) was 38.89±2.67 and 46.02±0.29. For the same compound, the Ki (Dopamine 1 (D1)) was > 10 µM, the “locomotion and motor coordination” value [4] was “enhanced locomotion and improved motor coordination” and the Ki (κ-opioid receptors (KOR)) was 1240 nM. For the same compound, the Ki [5] was > 10 µM, the Ki (µ-opioid receptors (MOR)) was 3.04 µM and the TNF-α expression ([6]; ZA-II-05 only 100 mg/kg, all brain regions vs other groups) was “upregulated the expression of TNF-α significantly (p < 0.05) in all the brain regions”. For the same compound, the “cytoplasmic TNF-α expression” value ([6]; […] + ZA-II-05-treated groups vs […] group) was “reduced cytoplasmic TNF-α expression compared to vanadium group”, the NPT (Non-protein thiol (NPT); [10]) was 26.98±5.89 nmoles/mg protein and the NPT (Non-protein thiol (NPT); mouse, in vivo) was 29.06±3.80 nmoles/mg protein. For the same compound, the “cell death in vanadium-treated hippocampal slices (propidium iodide uptake)” value [7] was “gradual reduction in cell death with increasing concentrations”, the “concentration of peak protection against vanadium-induced cell death” value [7] was 100 µM and the “dendritic length and arborization (Golgi stain)” value [8] was “successfully reversed these dendritic changes induced by vanadium neurotoxicity”. The Ki (Sigma1) was > 10 µM, the THIOL (total thiol (PT); [10]) was 28.62±6.72 nmoles/mg/protein and the THIOL (total thiol (PT); mouse, in vivo) was 25.06±4.68 nmoles/mg/protein. For the same compound, the “microglial activation (IBA1)” value (IBA1) was “quiescence and recovery from activation”, the Ki [9] was 3.16 µM and the Ki (5-HT2A) was > 10 µM. For the same compound, the “difference in affinity GluN1/GluN2A vs GluN1/GluN2B” value (GluN1/GluN2A) was “No significant difference in affinity”.
